Laboratory results taken from US11918693B2, “Ibuprofen and acetaminophen tablet” (GlaxoSmithKline Consumer Healthcare Holdings (US) LLC, priority 2019, dated 2024).

Tested on: patients with at least moderate pain after extraction of 3 third molar teeth
Test: Study 1: phase 2 single-dose dental pain study, analgesic efficacy and tolerability of 3 FDCs of IBU/APAP vs IBU 400 mg and placebo
Type: in vivo, human
Details: single oral dose, IBU dose 400 mg
Description: Study 1 was a phase 2, 12-hour, 5-arm, randomized, double-blind, parallel group, in-patient, placebo-controlled study designed to determine the overall analgesic efficacy of 3 different FDCs of IBU/APAP compared with IBU 400 mg and placebo.
All study procedures were in compliance with the ethical principles originating in or derived from the Declaration of Helsinki and with all International Council for Harmonization Good Clinical Practice Guidelines, as well as local regulatory requirements. All patients provided written informed consent. Eligible patients were healthy males or females aged 16-40 years, inclusive, who had undergone extraction of 3 third molar teeth (with at least 2 having been partial or complete bony mandibular impactions) and had developed at least moderate pain within 5 hours of the oral surgery. Other entry criteria included: use of only the following preoperative medications/anesthetics: topical benzocaine, a short-acting parenteral local anesthetic (mepivacaine or lidocaine) with or without a vasoconstrictor and/or nitrous oxide; no contraindications to the study or rescue medications; and being sufficiently reliable, cooperative, and intelligent to record the requested information on the analgesic questionnaire form.
Upon experiencing at least moderate pain, patients were randomized 1:3:3:3:3 to receive a single oral dose of placebo; IBU 400 mg; FDC IBU/APAP 200 mg/500 mg; FDC IBU/APAP 250 mg/500 mg; or FDC IBU/APAP 300 mg/500 mg.
Patients could receive 2 additional doses of rescue medication at the study center. Patients were permitted to take rescue medication at any time but were encouraged to wait at least 1 hour after taking study medication to allow time for the medication to exert its effect. Patients who took rescue medication remained at the study site for the full duration of the study and continued to perform assessments.
At baseline, patients rated their pain severity using a categorical and a numerical pain severity rating (PSR) scale. The categorical PSR was a 4-point scale (none, mild, moderate, severe), with each category assigned a value from 0-3, respectively. The achievement of moderate pain at baseline was confirmed by a score of >50 mm on a 100-mm visual analog pain scale. Additionally, pain was assessed using an 11-point numerical PSR (0-10; 0=none to 10=worst possible pain).
Following the administration of study medication, patients were followed and evaluated on site for 12 hours. During that time, study participants provided self-ratings of pain severity (on both categorical and numerical PSR scales as described above) and pain relief: using a 5-point categorical pain relief rating (PRR) scale (0=none, 1=a little, 2=some, 3=a lot, and 4=complete) at 0.25, 0.5, 1, 1.5, 2, 3, 4, 5, 6, 7, 8, 9, 10, 11, and 12 hours post-treatment, after taking study medication, immediately before taking rescue medication, or at time of study withdrawal (if either occurred).
Additional patient assessments included time to first perceptible relief (TFPR) and time to meaningful pain relief (TMPR) using the double-stopwatch method, in which the first stopwatch was pressed by the patient when pain relief was first perceived, and the second when that relief became meaningful. Duration of pain relief was measured by the time to treatment failure (i.e., the time of first dose of rescue medication or dropout due to lack of efficacy). At 12 hours or immediately before taking rescue medication for the first time, patients also provided a Patient Global Evaluation based on a 6-point categorical scale ranging from 0 (very poor) to 5 (excellent).
The primary endpoint was the time-weighted sum of pain relief and pain intensity difference (PID) scores from baseline (time 0) through 8 hours (SPRID[4]0-8) after dosing based on PRR and categorical PSR. […]

`CC(C)Cc1ccc(C(C)C(=O)O)cc1` (centres unmarked) [IBU, 2-(4-isobutylphenyl) propionic acid] was tested, and the “Alveolar osteitis, treatment-emergent adverse event, %” value was “(2.2) %”, the “Dizziness, treatment-emergent adverse event, %” value was “(7.6) %” and the “Feeling hot, treatment-emergent adverse event, %” value was “(4.3) %”. The “Median time to first perceptible relief (TFPR)” value was 24.9 min, the “Median time to meaningful relief (TMPR)” value was 56.2 min and the “Median time to treatment failure (duration of relief)” value was 10.4 h. The “Nausea, treatment-emergent adverse event, %” value was “(23.9) %”, the “TOTPAR0-2, mean (time-weighted sum of pain relief rating scores over 0-2 hours)” value was 4.0 and the “Tension headache, treatment-emergent adverse event, %” value was “(4.3) %”. The “Tremor, treatment-emergent adverse event, %” value was “(2.2) %”, the “Vomiting, treatment-emergent adverse event, %” value was “(15.2) %” and the “TOTPAR0-6, mean” value (0-6 hours) was 14.3. The “TOTPAR0-8, mean” value (0-8 hours) was 18.4 and the “TOTPAR0-12, mean” value (0-12 hours) was 23.9.
